Laboratory results taken from US20240174618A1, “SUBSTITUTED (2-HETEROARYLOXYPHENYL)SULFONATES, SALTS THEREOF AND THEIR USE AS HERBICIDAL AGENTS” (Bayer Aktiengesellschaft, priority 2021, published 2024).

Key:
Format in all cases: in vivo
Poa annua (POAAN) [1] = assay: A. Herbicidal pre-emergence efficacy, POAAN
Method in brief: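 Pre-emergence soil-surface spray in sandy loam pots, WP/EC in water plus 0.5% additive, 600 L/ha. Visual % damage rating after about 3 weeks in greenhouse vs. untreated; 0% = control-like, 100% = dead plants. Rates up to 1280 g/ha.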

Viola tricolor (VIOTR) = assay: C. Herbicidal pre-emergence efficacy, VIOTR
Method in brief: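 Pre-emergence test: formulated compounds sprayed as aqueous suspension or emulsion with 0.5% additive at 600 l/ha onto soil covering sown seeds, at rates corresponding to 320 g/ha or less. After about 3 weeks in greenhouse, efficacy scored visually as percent versus untreated controls (100% = plants dead).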

[2] = tested on: Echinochloa crus-galli (ECHCG); assay: B. Herbicidal post-emergence efficacy, ECHCG; conditions: rated visually after about 3 weeks
Method in brief: (§1)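 Visual percent efficacy relative to untreated controls (0% unaffected, 100% dead), scored roughly 3 weeks after foliar spraying of one-leaf-stage pot-grown plants with WP or EC preparations at application rates up to 1280 g/ha in 600 L/ha water containing 0.5% additive.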

Setaria viridis (SETVI) = assay: E. Herbicidal post-emergence efficacy, SETVI
Protocol: Seeds of monocotyledonous and dicotyledonous weeds and crop plants were placed in sandy loam in plastic or organic planting pots, covered with soil and cultivated in a greenhouse under controlled growth conditions. 2 to 3 weeks after sowing, the test plants were treated at the one-leaf stage. The compounds of the invention, formulated in the form of wettable powders (WP) or as emulsion concentrates (EC), were then sprayed onto the green parts of the plants as aqueous suspension or emulsion with addition of 0.5% additive at a water application rate of 600 l/ha (converted). After the test plants had been kept in the greenhouse under optimum growth conditions for about 3 weeks, the activity of the preparations was rated visually in comparison to untreated controls.
For example, • 100% efficacy=plants have died, • 0% action=like untreated control plants.
Tables E1a to E12b below show the effects of selected compounds of the general formula (I) according to table 1 on various harmful plants at an application rate corresponding to 320 g/ha or less, which were obtained by the experimental procedure mentioned above.

Poa annua (POAAN) [3] = assay: B. Herbicidal post-emergence efficacy, POAAN; conditions: 1280 g/ha
Method in brief: as §1

[4] = tested on: Abutilon theophrasti (ABUTH); assay: C. Herbicidal pre-emergence efficacy, ABUTH; conditions: scored after about 3 weeks
From the text: Seeds of monocotyledonous and dicotyledonous weed plants and crop plants were placed in plastic or organic planting pots and covered with soil. The compounds of the invention, formulated in the form of wettable powders (WP) or as emulsion concentrates (EC), were then applied to the surface of the covering soil as aqueous suspension or emulsion with addition of 0.5% additive at a water application rate equivalent to 600 l/ha (converted). After the treatment, the pots were placed in a greenhouse and kept under good growth conditions for the test plants. After about 3 weeks, the efficacy of the preparations was scored visually in comparison with untreated controls as percentages. For example, • 100% efficacy=plants have died, • 0% efficacy=like untreated control plants.
Tables C1a to C14b below show the effects of selected compounds of the general formula (I) according to table 1 on various harmful plants at an application rate corresponding to 320 g/ha or less, which were obtained by the experimental procedure mentioned above.

[5] = tested on: Pharbitis purpurea (PHBPU); assay: E. Herbicidal post-emergence efficacy, PHBPU
Method in brief: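 Greenhouse weeds were treated post-emergence at the one-leaf stage, 2-3 weeks after sowing in sandy loam, with WP or EC formulations sprayed as aqueous suspension/emulsion plus 0.5% additive at 600 l/ha, at 320 g/ha or less. Efficacy was rated visually after about 3 weeks versus untreated controls (100% = dead, 0% = like control).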

SMILES	Pre-emergence efficacy against POAAN (Poa annua (POAAN) [1]; dosage 320 g/ha) [%]	Pre-emergence efficacy against POAAN (Poa annua (POAAN) [1]; dosage 1280 g/ha) [%]	Pre-emergence efficacy against VIOTR in % (Viola tricolor (VIOTR); application rate 80 g/ha) [%]	Pre-emergence efficacy against VIOTR in % (Viola tricolor (VIOTR); application rate 320 g/ha) [%]	Post-emergence efficacy against ECHCG in % ([2]; 1280 g/ha) [%]	Post-emergence efficacy against SETVI in % (Setaria viridis (SETVI); application rate 320 g/ha) [%]	Post-emergence efficacy against POAAN (Poa annua (POAAN) [3]) [%]	Pre-emergence efficacy against ABUTH ([4]; 320 g/ha) [%]	Pre-emergence efficacy against POAAN (Poa annua (POAAN) [1]; dosage 80 g/ha) [%]	Pre-emergence efficacy against ABUTH ([4]; 80 g/ha) [%]	Post-emergence efficacy against PHBPU in % ([5]; application rate 80 g/ha) [%]	Post-emergence efficacy against PHBPU in % ([5]; application rate 320 g/ha) [%]	Post-emergence efficacy against ECHCG in % ([2]; 80 g/ha) [%]	Post-emergence efficacy against ECHCG in % ([2]; 320 g/ha) [%]	Post-emergence efficacy against SETVI in % (Setaria viridis (SETVI); application rate 80 g/ha) [%]
O=S(=O)(CCl)Oc1ccccc1Oc1ncc(Cl)cn1 [Example I-9]	90	100	90	100	90	100	90								
C=CCS(=O)(=O)Oc1ccccc1Oc1ncc(Cl)cn1 [Example I-36]		90					90	90							
O=S(=O)(CCCC(F)(F)F)Oc1c(F)cccc1Oc1ncc(F)cn1 [Example I-42]	100	100	100	100	100	100		100	100	100	100	100	100	100	100
O=S(=O)(CCC(F)(F)F)Oc1c(Br)cccc1Oc1ncc(F)cn1 [Example I-43]	100	100	90	100	90			100		80	80	90		90	
Cc1cccc(Oc2ncc(F)cn2)c1OS(=O)(=O)CCC(F)(F)F [Example I-45]	100	100	100	100	100	80		100	90	100				100	
Cc1cccc(Oc2ncc(F)cn2)c1OS(=O)(=O)CCCC(F)(F)F [Example I-46]	100	100	100	100	100	80		100	90	100	80	90	90	90	
O=S(=O)(CCC(F)=C(F)F)Oc1c(F)cccc1Oc1ncc(Cl)cn1 [Example I-70]			100	100		100		100		80	80	100			100
N#Cc1cccc(Oc2ncc(Cl)cn2)c1OS(=O)(=O)CCCC(F)(F)F [Example I-81]			100	100		100		100			90	100			
